Patent publication US5521160A, “Sulfuric acid esters of sugar alcohols” (Hoffmann-La Roche Inc., priority 1994, dated 1996)
Counter-ions that a name gives are not always drawn. Like-named read-outs stand apart in the source and are kept apart here.

Columns and labels:
thrombin = biological target: T1, thrombin (Homo sapiens, UniProt P00734); experiment: biochemical; type: biochemical; details: read-out: Anticoagulative Activity IC50 Thrombin
T1 construct: purchased Roche, Basle (Thrombin Reagent)
Experimental: (§1) The blood coagulation-inhibiting activity was determined as follows:
Inhibition of Thrombin or Factor Xa in the Chromogenic Substrate Assay (Teien. et al., Thrombosis Research 10, 399-410 (1977)): The determination was effected in a Cobas-Bio centrifugal automatic spectrophotometer. The buffer solution used consisted of 50 mM Tris buffer, 180 mM NaCl, 7.5 mM EDTA Na2, 1% PEG 6000 and 0.02% Tween 80, pH 8.4. The test solution consisted of 50 μl of buffer, 30 μl of antithrombin III (1 U/ml, Kabi Diagnostica) and 20 μl of plasma which contained various concentrations of test compounds. 30 μl of sample solution and 20 μl of water with 180 μl of thrombin (1 U/ml, Thrombin Reagent Roche Basle) were added to the test cuvette in the automatic analyzer. After incubation at 37° C. for 240 seconds, 60 μl of S-2238 (H-D-Phe-Pip-Arg-NH.pNA, Kabi Diagnostica, Mondal, Sweden, 0.75 mM in water) and 20 μl of water were added. The liberation of pNA (p-nitroaniline) was followed during 60 seconds at 405 nm in 10 second intervals in comparison to water as the blank.

Factor Xa = biological target: T2, Factor Xa (Bos taurus, UniProt P00743); experiment: Inhibition of Factor Xa in the chromogenic substrate assay (blood coagulation inhibition); type: biochemical; details: chromogenic substrate S-2222, antithrombin III, plasma; read-out: Anticoagulative Activity IC50 Factor Xa
T2 sequence (P00743 41-180 limits assumed): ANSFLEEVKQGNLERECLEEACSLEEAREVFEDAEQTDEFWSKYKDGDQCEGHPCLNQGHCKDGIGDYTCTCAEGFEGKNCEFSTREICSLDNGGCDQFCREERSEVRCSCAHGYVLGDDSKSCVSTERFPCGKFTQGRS
Experimental: as §1
Inhibition of Thrombin or Factor Xa in the Chromogenic Substrate Assay (Teien. et al., Thrombosis Research 10, 399-410 (1977)): The determination was effected in a Cobas-Bio centrifugal automatic spectrophotometer. The buffer solution used consisted of 50 mM Tris buffer, 180 mM NaCl, 7.5 mM EDTA Na2, 1% PEG 6000 and 0.02% Tween 80, pH 8.4. The test solution consisted of 50 μl of buffer, 30 μl of antithrombin III (1 U/ml, Kabi Diagnostica) and 20 μl of plasma which contained various concentrations of test compounds.
The inhibition of Factor Xa was measured in the same manner using a solution of Factor Xa (2.8 nkat/ml) and 2 mM S-2222 (Bz-CO-Ile-Glu-Arg-NH.pNA, Kabi Diagnostica) in water in place of thrombin or S-2238.

rat smooth muscle cells = experiment: Antiproliferative activity (growth inhibition of rat smooth muscle cells, relative to heparin); type: cell-based; details: 100 μg/ml, 48 hours, relative to heparin 100 μg/ml in same experiment
Experimental: The antiproliferative activity of a substance is expressed as the ri value which is a comparative value to the corresponding activity of heparin and which was determined in cell cultures as follows: rat smooth muscle cells were applied to cell culture plates in a density of 8×10^3 cells/well (medium: DMEM with 10% FCS. Cultivation at 37° C. and 5% CO2). After 4 hours the number of adhered cells was determined and the compounds to be tested (100 μg/ml, dissolved in H2 O) were added. The controls were a) cells to which test compound was not added and b) heparin (100 μg/ml). Subsequently, the cells were incubated for 48 hours and thereafter the cell count was determined once more.
The inhibition i of the cell growth, i.e. the percent reduction in the growth rate of the cells compared to the control, was calculated from these values: [formula] the growth rate μ being calculated as [formula] in which Z is the number of cells.
Finally, ri --the relative inhibitory activity--which expresses the activity of a substance (at 100 μg/ml) in comparison to the activity of heparin in the same concentration in the same experiment, was calculated: [formula]

[1] = chromogenic substrate S-2238, antithrombin III, plasma, pH 8.4, 37° C.

| IC50 (thrombin; pH 8.4) [µM] | IC50 (Factor Xa) [µM] | IC50 (thrombin; [1]) [µM] | Structure (SMILES) | Antiproliferative Activity ri (relative inhibitory activity compared with heparin) (rat smooth muscle cells) |
| --- | --- | --- | --- | --- |
| – | > 773 | > 773 | O=C(NC[C@H](OS(=O)(=O)O)[C@@H](OS(=O)(=O)O)[C@H](OS(=O)(=O)O)[C@@H](COS(=O)(=O)O)OS(=O)(=O)O)c1cccc(C(=O)NC[C@H](OS(=O)(=O)O)[C@@H](OS(=O)(=O)O)[C@H](OS(=O)(=O)O)[C@@H](COS(=O)(=O)O)OS(=O)(=O)O)c1 [Example 14, N,N'-bis-(2,3,4,5,6-penta-O-sulfo-D-glucit-1-yl)-isophthalamide decasodium salt] | 0.6 |
| – | > 723 | > 723 | O=C(NC[C@H](OS(=O)(=O)O)[C@@H](OS(=O)(=O)O)[C@H](OS(=O)(=O)O)[C@@H](COS(=O)(=O)O)OS(=O)(=O)O)c1ccc(Cc2ccc(C(=O)NC[C@H](OS(=O)(=O)O)[C@@H](OS(=O)(=O)O)[C@H](OS(=O)(=O)O)[C@@H](COS(=O)(=O)O)OS(=O)(=O)O)cc2)cc1 [Example 16, 4,4'-methylene-dibenzoic acid bis-(2,3,4,5,6-penta-O-sulfo-D-glucit-1-ylamide) decasodium salt] | 0.7 |
| – | > 748 | > 748 | Cc1c(NC(=O)NC[C@H](OS(=O)(=O)O)[C@@H](OS(=O)(=O)O)[C@H](OS(=O)(=O)O)[C@@H](COS(=O)(=O)O)OS(=O)(=O)O)cccc1NC(=O)NC[C@H](OS(=O)(=O)O)[C@@H](OS(=O)(=O)O)[C@H](OS(=O)(=O)O)[C@@H](COS(=O)(=O)O)OS(=O)(=O)O [Example 26, 3,3'-bis-(2,3,4,5,6-penta-O-sulfo-D-glucit-1-yl)-1,1'-(toluene-2,6-diyl)-diurea decasodium salt] | 1.5 |
| > 640 | > 640 | – | O=C(NC[C@H](OS(=O)(=O)O)[C@@H](OS(=O)(=O)O)[C@H](OS(=O)(=O)O)[C@@H](COS(=O)(=O)O)OS(=O)(=O)O)Nc1ccc(NC(=O)c2ccc(C(=O)Nc3ccc(NC(=O)NC[C@H](OS(=O)(=O)O)[C@@H](OS(=O)(=O)O)[C@H](OS(=O)(=O)O)[C@@H](COS(=O)(=O)O)OS(=O)(=O)O)cc3)cc2)cc1 [Example 33, N,N'-bis-[4-[3-(2,3,4,5,6-penta-O-sulfo-D-glucit-1-yl)-ureido]-phenyl]-terephthalamide decasodium salt] | 0.8 |
| > 662 | > 662 | – | O=C(/C=C/C(=O)Nc1ccc(NC(=O)NC[C@H](OS(=O)(=O)O)[C@@H](OS(=O)(=O)O)[C@H](OS(=O)(=O)O)[C@@H](COS(=O)(=O)O)OS(=O)(=O)O)cc1)Nc1ccc(NC(=O)NC[C@H](OS(=O)(=O)O)[C@@H](OS(=O)(=O)O)[C@H](OS(=O)(=O)O)[C@@H](COS(=O)(=O)O)OS(=O)(=O)O)cc1 [Example 34, N,N'-bis-[4-[3-(2,3,4,5,6-penta-O-sulfo-D-glucit-1-yl)-ureido]-phenyl]-fumaramide decasodium salt] | 0.4 |

The remaining lines, values behind:

| Structure (SMILES) | IC50 (thrombin; pH 8.4) [µM] | IC50 (Factor Xa) [µM] | IC50 (thrombin; [1]) [µM] | Antiproliferative Activity ri (relative inhibitory activity compared with heparin) (rat smooth muscle cells) |
| --- | --- | --- | --- | --- |
| O=C(NC[C@H](OS(=O)(=O)O)[C@@H](OS(=O)(=O)O)[C@H](OS(=O)(=O)O)[C@@H](COS(=O)(=O)O)OS(=O)(=O)O)c1ccc2cc(C(=O)NC[C@H](OS(=O)(=O)O)[C@@H](OS(=O)(=O)O)[C@H](OS(=O)(=O)O)[C@@H](COS(=O)(=O)O)OS(=O)(=O)O)ccc2c1 [Example 1, naphthalene-2,6-dicarboxylic acid bis-(2,3,4,5,6-penta-O-sulfo-D-glucit-1-ylamide) decasodium salt] | > 745 | > 745 | – | 0.6 |
| O=C(NC[C@H](OS(=O)(=O)O)[C@@H](OS(=O)(=O)O)[C@H](OS(=O)(=O)O)[C@@H](COS(=O)(=O)O)OS(=O)(=O)O)c1ccc(/C=C\c2ccc(C(=O)NC[C@H](OS(=O)(=O)O)[C@@H](OS(=O)(=O)O)[C@H](OS(=O)(=O)O)[C@@H](COS(=O)(=O)O)OS(=O)(=O)O)cc2)cc1 [Example 3, (Z)-stilbene-4,4'-dicarboxylic acid bis-(2,3,4,5,6-penta-O-sulfo-D-glucit-1-ylamide) decasodium salt] | – | > 717 | > 717 | 1.5 |
| O=C(NC[C@H](OS(=O)(=O)O)[C@@H](OS(=O)(=O)O)[C@H](OS(=O)(=O)O)[C@@H](COS(=O)(=O)O)OS(=O)(=O)O)c1ccc(S(=O)(=O)c2ccc(C(=O)NC[C@H](OS(=O)(=O)O)[C@@H](OS(=O)(=O)O)[C@H](OS(=O)(=O)O)[C@@H](COS(=O)(=O)O)OS(=O)(=O)O)cc2)cc1 [Example 4, 4,4'-sulfonyl-dibenzoic acid bis-(2,3,4,5,6-penta-O-sulfo-D-glucit-1-ylamide) decasodium salt] | – | > 698 | > 698 | 0.3 |
| CC(/C=C/C=C(\C)C(=O)NC[C@H](OS(=O)(=O)O)[C@@H](OS(=O)(=O)O)[C@H](OS(=O)(=O)O)[C@@H](COS(=O)(=O)O)OS(=O)(=O)O)=C\C=C\C=C(C)\C=C\C=C(/C)C(=O)NC[C@H](OS(=O)(=O)O)[C@@H](OS(=O)(=O)O)[C@H](OS(=O)(=O)O)[C@@H](COS(=O)(=O)O)OS(=O)(=O)O [Example 6, (2E,4E,6E,8E,10E,12E,14E)-2,6,11,15-tetramethyl-hexadeca-2,4,6,8,10,12,14-heptaenedicarboxylic acid bis-(2,3,4,5,6-penta-O-sulfo-D-glucit-1-ylamide) decasodium salt] | – | > 687 | > 687 | 1.5 |
| O=C(NC[C@H](OS(=O)(=O)O)[C@@H](OS(=O)(=O)O)[C@H](OS(=O)(=O)O)[C@@H](COS(=O)(=O)O)OS(=O)(=O)O)c1ccc(CCc2ccc(C(=O)NC[C@H](OS(=O)(=O)O)[C@@H](OS(=O)(=O)O)[C@H](OS(=O)(=O)O)[C@@H](COS(=O)(=O)O)OS(=O)(=O)O)cc2)cc1 [Example 10, 4,4'-ethylene-dibenzoic acid bis-(2,3,4,5,6-penta-O-sulfo-D-glucit-1-ylamide) decasodium salt] | – | > 716 | > 716 | 1.5 |
| O=S(=O)(O)OC[C@@H](OS(=O)(=O)O)[C@@H](OS(=O)(=O)O)[C@H](OS(=O)(=O)O)[C@H](CNS(=O)(=O)c1cccc2c(S(=O)(=O)NC[C@H](OS(=O)(=O)O)[C@@H](OS(=O)(=O)O)[C@H](OS(=O)(=O)O)[C@@H](COS(=O)(=O)O)OS(=O)(=O)O)cccc12)OS(=O)(=O)O [Example 11, naphthalene-1,5-disulfonic acid bis-(2,3,4,5,6-penta-O-sulfo-D-glucit-1-ylamide) decasodium salt] | – | > 707 | > 707 | 1.0 |
| O=C(Nc1ccc(OC[C@@H](OS(=O)(=O)O)[C@H](OS(=O)(=O)O)[C@@H](COS(=O)(=O)O)OS(=O)(=O)O)cc1)c1cccc(C(=O)Nc2ccc(OC[C@@H](OS(=O)(=O)O)[C@H](OS(=O)(=O)O)[C@@H](COS(=O)(=O)O)OS(=O)(=O)O)cc2)c1 [Example 12, N,N'-bis-[4-(2,3,4,5-tetra-O-sulfo-D-arabinit-1-yloxy)-phenyl]-isophthalamide octasodium salt] | – | > 795 | > 795 | 0.9 |
